The target in assay [1] is dsDNA. The experiment in a line: UV titration, dsDNA. The conditions noted are these: for Kd dsDNA: UV titration at 350 nm, 10 µM peptide, 10 mM sodium cacodylate pH 6.6, no KCl; for Kd dsDNA, 100 mM KCl: UV titration, 10 mM sodium cacodylate 100 mM potassium chloride pH 6.6, two experiments. Set-up: key to Kd dsDNA, 100 mM KCl: Binding classified as non-specific (NS) showed no consistent or concentration-dependent pattern, under the tested conditions; key to Kd dsDNA: NS = non-specific binding indicates where no significant pattern of binding was observed at the concentration range of the experiment. It counts as binding. The protocol:
(§1) UV titrations were recorded using an Agilent Cary-60 UV/VIS spectrometer with a 10 mm path length black-walled quartz cuvette. Oligonucleotides (c-MycC27, c-MycC52, c-MycG27, c-MycG52, DAPc, DAPg, and dsDNA; sequences listed in Supplementary Table S1) were annealed as 250 µM stock solutions in 10 mM sodium cacodylate buffer (pH 6.6) in the presence or absence of 100 mM KCl. Spectra were recorded at room temperature over a wavelength range of 300–500 nm with 1 nm intervals. Buffer-only spectra were recorded and subtracted from each dataset as blanks. Peptide ligands were prepared as 1 mM stock solutions in DMSO and added to the cuvette at a final concentration of 10 µM in buffer prior to DNA addition. DNA stock was diluted to 50 µM in buffer and was added stepwise to the peptide solution to reach 2.5 µM final concentration, followed by additions from the 250 µM DNA stock to reach final DNA concentrations of 30 or 50 µM. The absorbance at 350 nm was monitored and plotted against DNA concentration. Binding curves were fitted using a one-site binding model in GraphPad Prism version 10.1.2, and Kd values were determined from normalized data to represent the DNA-ligand bound fraction.
(§2) Despite the demonstrable importance of the extended five-tract C-rich sequence within the c-Myc promoter, most studies looking at ligand binding use the shorter sequences. […] Although the iM-targeting antibody is specific for iM as a structure, it also binds multiple types of iM-structures.

The test system of assay [2] is human insulin promoter (ILPR) firefly luciferase reporter in HEK293 cells. Briefly: Dual-luciferase reporter assay, insulin promoter (ILPR). In kind it is cell-based. The conditions noted are these: HEK293, 4 h, 10 µM peptide with Nanocin Pro. (A reporter such as luciferase makes a cellular process visible.)
The target in assay [3] is c-MycC52. The experiment in a line: UV titration, c-MycC52. It counts as binding. The note with it: for Kd: average of three experiments ± SD, SD; for selectivity for c-MycC52 against the complementary G4 forming sequence: from UV titration Kd values. On the procedure: as §1, §2
Assay [4] addresses DAPc. Briefly: UV titration, DAPc. In kind it is binding. More on the design: key to Kd DAPc, 100 mM KCl: Binding classified as non-specific (NS) showed no consistent or concentration-dependent pattern, under the tested conditions; key to Kd DAPc: NS = non-specific binding indicates where no significant pattern of binding was observed at the concentration range of the experiment. The note with it: for Kd DAPc: UV titration at 350 nm, 10 µM peptide, 10 mM sodium cacodylate pH 6.6, no KCl; for Kd DAPc, 100 mM KCl: UV titration, 10 mM sodium cacodylate 100 mM potassium chloride pH 6.6, two experiments. The protocol:
as §1, §2

Assay [5] addresses c-MycG52. The experiment in a line: UV titration, c-MycG52. It counts as binding. On the procedure: as §1, §2
The subject of assay [6] is c-MycC52 iM. Briefly: Fluorescent indicator displacement (FID) assay with Thiazole Orange. The note with it: 1 µM c-MycC52, 2 µM TO, 10 mM sodium cacodylate pH 6.6, peptides 25-200 µM, n = 3. It counts as binding. On the procedure:
Fluorescent indicator displacement (FID) experiments used in this publication are based on the first FID assay developed for iM DNA [35]. The FID experiments were performed on a BMG CLARIOstar plate reader using 96-well, solid black flat-bottom plates. Thiazole Orange (TO) was the indicator, and the stock solution was prepared at 10 mM in DMSO. The TO stock was diluted into the appropriate buffer to 2 µM. Each well received 9 µl of the 2 µM TO solution, was excited at 430 nm, and fluorescence emission at 450 nm was measured; this was normalized to 0% to account for background fluorescence. One microlitre of […] DNA was added to each well and shaken in the plate reader for 30 s using double orbital shaking at 700 rpm and left for 10 min to equilibrate. Following equilibration, fluorescence emission was measured and normalized to 100% representing maximum fluorescence. Peptides were titrated starting at 25 µM, with 0.9 µl additions into each well in triplicate, until a final concentration of 200 µM was reached, and fluorescence emission was measured after each addition. Fluorescence emission for each well was normalized between 0% and 100%, which was taken away from 100 to give the percentage of displacement. The data were analyzed in Origin data analysis software and fitted with a hyperbolic dose–response curve from which the DC50 value was interpolated.
The relative binding of the five peptide ligands to the folded c-MycC52 iM was assessed via a FID assay using TO (Fig. 1). These experiments were performed in 10 mM sodium cacodylate at pH 6.6, the transitional pH of the c-Myc iM-forming sequence. As iM-formation is reduced at higher pH and higher ionic strength, additional stabilizing cations were avoided to allow the highest proportion of iM formation at the highest pH, to represent as close to physiological pH conditions as possible.
Figure 1. Concentration-dependent interaction of peptides with c-MycC52 iM determined via FID assay. The assay was performed with 1 µM c-MycC52 in 10 mM sodium cacodylate, pH 6.6, in the presence of 2 µM TO. Peptide ligands were added in increments of 25 µM up to a final concentration of 200 µM. Data are presented as mean ± SD (n = 3) and fitted using a Hill-Slope dose–response curve.

Assay [7] has as its system dsDNA (DS). Briefly: CD melting of double-stranded DNA. The conditions noted are these: for TM DS / ΔTM DS: 10 µM DNA, SEM; for TM DS / effect on dsDNA melting compared to the solvent controls, in words: 10 mM NaCaco pH 6.6, 10 molar eqv. peptide; for TM DS: mean ± SEM (n=4); for ΔTM DS: 10 mM sodium cacodylate pH 6.6, 10 molar equivalents peptide vs DMSO, mean ± SEM (n = 4); for effect on dsDNA melting compared to the solvent controls, in words: 10 µM DS. It counts as binding. On the procedure: Circular Dichroism (CD) melting experiments were performed in a Jasco J-1500 spectropolarimeter with 10 µM DNA samples in 10 mM sodium cacodylate buffer at pH 6.6 using a 1 mm path length quartz cuvette. […] The samples were kept at 5°C for 5 min before starting the melt, with a temperature increase of 1°C/min, a 0.5°C data interval, and a 60-s holding time at each target temperature. Four scans were accumulated data pitch of 0.5 nm, a scanning speed of 200 nm/min, 1 s response time, 2 nm bandwidth, and 200 mdeg sensitivity. Furthermore, two CD melting experiment repeats were performed recording C-rich c-Myc at 288 and 320 nm, G-rich c-Myc at 264 and 320 nm, and dsDNA at 253 and 320 nm with the settings as described for full spectrum measurements. Data were zero corrected to 320 nm and baseline drift. The melting temperature (TM) was concluded using the Boltzmann or biphasic fitting curve on the folded fraction data using GraphPad Prism version 10.1.2. Data were processed as mean ± SEM (n = 4) and one-way ANOVA followed by Bonferroni post-hoc test to determine significant changes between peptides and controls.

[8] abbreviates: UV titration at 350 nm, 10 µM peptide, 10 mM sodium cacodylate pH 6.6, no KCl, room temperature, read-out: Kd c-MycC52.
Setting [9] is: read-out: Kd c-MycC52, 100 mM KCl, UV titration, 10 mM sodium cacodylate 100 mM potassium chloride pH 6.6.
[10] abbreviates: UV titration at 350 nm, 10 µM peptide, 10 mM sodium cacodylate pH 6.6, no KCl, binding did not plateau at the concentration range, read-out: Kd c-MycG52.
[11] abbreviates: read-out: Kd c-MycG52, 100 mM KCl, UV titration, 10 mM sodium cacodylate 100 mM potassium chloride pH 6.6, average of three experiments ± SD, SD.

The text below walks through data of publication PMC12596500, “Affinity-selected peptide ligands specifically bind i-motif DNA and modulate c-Myc gene expression” (Nucleic Acids Research, 2025).

Where two headings read alike, the source gives them in different places. Peptide text beside a SMILES is read from it.

As usually defined, the Kd is the constant that tells how readily two partners part at equilibrium.

For the compound `CC(=O)N1CCC[C@H]1C(=O)N[C@H](C(=O)N[C@@H](CC(N)=O)C(=O)N[C@H](C(=O)N[C@@H](CO)C(=O)NCC(=O)N[C@@H](CCCNC(=N)N)C(=O)N[C@@H](CC(N)=O)C(=O)N[C@@H](Cc1ccc(O)cc1)C(=O)N[C@@H](CC(C)C)C(=O)N[C@@H](Cc1ccccc1)C(=O)N[C@@H](CS)C(N)=O)C(C)C)[C@@H](C)O` [Pep-PTN] (Ac-PTNVSGRNYLFC-NH2), in assay [1], the “Kd dsDNA” value is recorded as “NS” and the “Kd dsDNA, 100 mM KCl” value is given as “NS”. Besides, the “insulin promoter (ILPR) reporter response” value in assay [2] is listed as “no significant change in response”. The Kd in assay [3] (setting [8]) came to 930 ± 80 nM. Moreover, the “selectivity for c-MycC52 against the complementary G4 forming sequence” value in assay [3] is reported as “about 50 fold”. Besides, the Kd in assay [3] (setting [9]) was 1540 ± 30 nM. Further, in assay [4], the “Kd DAPc” value is on record as “NS” and the “Kd DAPc, 100 mM KCl” value is listed as “NS”. In assay [5] (setting [10]), the Kd was over 50 µM. Further, the Kd in assay [5] (setting [11]) worked out at 45 ± 4 µM. For the same compound, the “relative binding affinity ranking (TO displacement)” value in assay [6] is reported as “SLC > PTN > VSE > EIE > RVS”. Moreover, in assay [7], the “TM DS” value was determined as 52 ± 1.0 °C; the “ΔTM DS” value was 0 ± 0.6 °C; the “effect on dsDNA melting compared to the solvent controls, in words” value is “no effect on dsDNA melting”.

In the case of `CC(=O)N[C@H](C(=O)N[C@@H](CO)C(=O)N[C@@H](CCC(=O)O)C(=O)N[C@@H](C)C(=O)N[C@@H](Cc1c[nH]c2ccccc12)C(=O)N[C@@H](CCCCN)C(=O)N[C@@H](CCC(=O)O)C(=O)N[C@H](C(=O)N[C@@H](CCCCN)C(=O)NCC(=O)N[C@@H](Cc1ccccc1)C(=O)N[C@@H](Cc1ccccc1)C(N)=O)C(C)C)C(C)C` [Pep-VSE] (Ac-VSEAWKEVKGFF-NH2), in assay [1], the “Kd dsDNA” value was “NS” and the “Kd dsDNA, 100 mM KCl” value was “NS”. Besides, the “insulin promoter (ILPR) reporter response” value in assay [2] is recorded as “no significant change in response”. Further, the Kd in assay [3] (setting [8]) was 430 ± 30 nM. Further, the “selectivity for c-MycC52 against the complementary G4 forming sequence” value in assay [3] is about 100 fold. Besides, the Kd in assay [3] (setting [9]) is 690 ± 60 nM. In assay [4], the “Kd DAPc” value is “NS” and the “Kd DAPc, 100 mM KCl” value is listed as “NS”. In addition, in assay [5] (setting [10]), the Kd was over 50 µM. Also, the Kd in assay [5] (setting [11]) stood at 35 ± 3 µM. Further, the “relative binding affinity ranking (TO displacement)” value in assay [6] is listed as “SLC > PTN > VSE > EIE > RVS”. Further, in assay [7], the “TM DS” value is 51 ± 0.8 °C; the “ΔTM DS” value is 0 ± 0.8 °C; the “effect on dsDNA melting compared to the solvent controls, in words” value is reported as “no effect on dsDNA melting”.
